These results are taken from PubChem BioAssay (NCI).

Values joined by “and” are separate entries in the source; they are usually repeats but may differ in a detail not shown here. Equal entries are not always repeated.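 In this assay, cells in 96-well plates receive the compound at five concentrations for 48 hours. Endpoints are linearly interpolated between the surrounding concentrations. GI50: concentration for 50% inhibition of growth. The concentration for full growth arrest is given as TGI.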

What all share (assay): DTP human tumour cell line panel, 48 h
Test [1] has as its system A498 renal.
The subject of test [2] is COLO 205 colon.
Test [3] deals with KM12 colon.
Test [4] has as its system MALME-3M melanoma.
Test [5] concerns MCF7 breast.
In test [6] the test system is OVCAR-4 ovarian.
Test [7] concerns RPMI-8226 leukemia.
Test [8] concerns SK-OV-3 ovarian.
The subject of test [9] is SNB-19 CNS.
Test [10] has as its system SNB-75 CNS.

A word on the GI50: it is the concentration giving 50% growth inhibition. What is called TGI is the concentration giving total growth inhibition. The low end stands for more potent growth arrest, the high end for less potent growth arrest. Regarding `Oc1c(CN2CCC(N3CCCCC3)CC2)cc(Cc2cc(CN3CCC(N4CCCCC4)CC3)c(O)c3ncccc23)c2cccnc12`, the GI50 is 5.02 µM in test [1]; 372 nM in [2]; 677 nM in test [3]; 1.79 µM in test [4]; 865 nM in [5]; 435 nM in [6]. The GI50 in test [7] was 1860 nM; in test [8] it was 1210 nM; in [9], 2.65 µM; in [10], 1.65 µM. Moreover, the TGI in [1] came to 18 µM; in test [2], 1.94 µM; in [3], 14.6 µM; in test [4], 4.26 µM; in [5], 10.3 µM; in test [6], 13.6 µM. For the same molecule, the TGI in [7] came to 7.22 µM; in [8], 5.08 µM; in test [9], 22.5 µM; in test [10], 13.4 µM.
Turning to `COc1ccc(/C=C/c2nccc3ccccc23)cc1OC`, the TGI in [1], in [2], in test [3], in [4], in test [5] and in [6] was over 10 µM each time. Further, the TGI in test [7], in [8], in [9] and in test [10] was over 10 µM throughout.
On to `CC[C@@H]1CN(C)[C@H]2Cc3c([nH]c4ccccc34)C(=O)C[C@H]1C2C(=O)OC` (some centres not stated), for which the TGI in [1] was over 100 µM; in test [2], over 100 µM; in [3], over 100 µM; in test [4] it was over 100 µM; in test [5] it was over 100 µM; in test [6], over 31.6 µM. For the same molecule, the TGI in [7], in test [8], in test [9] and in test [10] was over 100 µM throughout.
Take `CC(=O)OCCN1c2ccccc2Sc2cnccc21`: the TGI in [1], in [2], in test [3], in test [4], in [5] and in [6] was over 10 µM each time. In addition, the TGI in [7], in test [8], in test [9] and in test [10] was over 10 µM each time.
Turning to `O=C(N/N=C/c1ccccc1O)c1ccccc1Nc1ccnc(C(F)(F)F)c1`, the GI50 was 18.1 µM in test [1]; 300 nM in test [2]; 484 nM in test [3]; 0.858 µM in test [4]; 350 nM in test [5]; 271 nM in [6]. Besides, the GI50 in test [7] is 189 nM; in test [8], 649 nM; in test [9], 1.77 µM; in [10] it was 2.25 µM. Moreover, the TGI in test [1] was over 91.6 µM; in test [2], 41.3 µM; in test [3] it was 32.7 µM; in test [4] it was 19.2 µM; in test [5], 29.2 µM; in [6], over 100 µM. The TGI is 1.64 µM in test [7], 38 µM in [8], over 100 µM in test [9] and 52.2 µM in test [10].
Turning to `CCCn1cnc2c(SCc3ccccc3Cl)nc(N)nc21`, the GI50 was 18.3 µM in test [1]; 10700 nM in test [2]; 15300 nM in test [3]; 21.4 µM in test [4]; 38600 nM in test [5]; 28000 nM in test [6]. Besides, the GI50 in test [7] was 6280 nM; in [8], 14900 nM; in test [9], 25.8 µM; in test [10], 19.7 µM. The TGI is over 100 µM in test [1]; over 100 µM in test [2]; over 100 µM in test [3]; 58.7 µM in test [4]; over 100 µM in [5]; over 100 µM in test [6]. For the same molecule, the TGI is 28.2 µM in test [7], over 100 µM in test [8], over 100 µM in test [9] and 86 µM in test [10].
Turning to `Oc1ccc(NCc2nc3ccccc3[nH]2)cc1`, the GI50 in test [1] was 14.7 µM; in [2], 69100 nM; in test [3] it was over 100000 nM; in [4], 76.3 µM; in [5] it was 32800 nM; in test [6], 28700 nM. Also, the GI50 in test [7] was 72800 nM; in [8], 32100 nM; in [9], 33.6 µM; in test [10] it was 18 µM. The total growth inhibition concentration (TGI) in test [1], in test [2], in [3], in test [4], in [5] and in test [6] was over 100 µM each time. Moreover, the TGI in test [7] is over 100 µM; in test [8], over 100 µM; in [9], over 100 µM; in test [10], 62.5 µM.
Turning to `C=CCCCCCCCCC(=O)[O][Sn]([CH2]CCC)([CH2]CCC)[CH2]CCC`, the GI50 in test [1] was 0.14 µM; in [2], 172 nM; in test [3] it was 145 nM; in test [4] it was 0.135 µM; in test [5], 137 nM; in test [6], 120 nM. Besides, the GI50 is 35 nM in test [7], 149 nM in test [8], 0.198 µM in [9] and 0.134 µM in test [10]. In addition, the TGI in test [1] worked out at 0.276 µM; in [2], 0.371 µM; in test [3], 0.3 µM; in test [4] it was 0.287 µM; in [5] it was 0.272 µM; in [6], 0.251 µM. Moreover, the TGI in test [7] is 0.278 µM; in [8], 0.306 µM; in test [9] it was 0.384 µM; in test [10], 0.326 µM.
As to `Oc1ccc2ccccc2c1N=Nc1nccs1`, the GI50 in test [1] was 10.5 µM; in test [2], 1600 nM; in [3] it was 629 nM; in test [4], 2.41 µM; in test [5] it was 471 nM; in test [6] it was 457 nM. The GI50 in test [7] was 187 nM; in [8], 1980 nM; in test [10], 1.46 µM. Further, the TGI was over 96.7 µM in [1]; 13.6 µM in test [2]; 19.9 µM in test [3]; 15.4 µM in test [4]; 16.7 µM in test [5]; 16.8 µM in test [6]. Further, the values for the TGI in test [8], in [9] and in test [10] were 41.2 µM, over 100 µM and 24.7 µM, respectively.
For the molecule `COc1cc(C2=NOC(c3cc(OC)c(OC)c(OC)c3)C2)ccc1OCCCCOc1cc2c(cc1OC)C(=O)N1CCC[C@H]1C=N2` (some centres not stated), the GI50 was 0.194 µM in test [1]; 245 nM in test [2]; 298 nM in test [3]; 0.197 µM in [4]; 255 nM in [5]; 439 nM in test [6]. Besides, the GI50 in test [7] is 271 nM; in test [8], 446 nM; in test [9] it was 1.31 µM; in [10], 0.35 µM. The TGI in test [1] came out at 0.396 µM; in [2], 0.586 µM; in test [3] it was 0.882 µM; in test [4] it was 0.364 µM; in test [5] it was 24.4 µM; in [6] it was 8.64 µM. Further, the figures for the TGI in test [7], in [8] and in test [10] were 0.682 µM, 3.81 µM and 1.6 µM, respectively.
With `FC(F)(F)c1cccc(Nc2nccc(-c3cnn4nc(-c5ccccc5)ccc34)n2)c1`, the GI50 in test [1] is over 14 µM; in test [2] it was 11800 nM; in [3], 6460 nM; in test [4], 7.23 µM; in [5], 6820 nM; in test [6], 5180 nM. Moreover, the GI50 in [7] is 12900 nM; in test [8], over 22600 nM; in test [9], over 17.1 µM; in test [10], 3.91 µM. In addition, the TGI in test [1] is over 25 µM; in test [2] it was over 25 µM; in test [3], over 19.6 µM; in test [4] it was 14.1 µM; in test [5], over 25 µM; in [6], 10.3 µM. Besides, the TGI in test [7] is over 25 µM; in test [8], over 25 µM; in test [9], over 25 µM; in [10] it was 9.6 µM.
On to `COc1cc2c(c(O)c1Br)C(=O)c1c(O)cc(C[C@H](C)O)cc1[C@H]2[C@H]1c2cc(C[C@H](C)O)cc(O)c2C(=O)c2c1cc(OC)c(Br)c2O`, for which the GI50 in test [1] is 4.35 µM and 22.5 µM; in [2], 2320 nM and 6740 nM; in test [3] it was 5960 nM and 26400 nM; in test [4], 6.65 µM and 12.8 µM; in test [5], 2440 nM and 3580 nM; in [6], 11100 nM and 25000 nM. For the same molecule, the GI50 is 2190 nM and 3000 nM in test [7]; 11600 nM and 24300 nM in [8]; 5.07 µM and 10.4 µM in test [9]; 5.09 µM and 16 µM in test [10]. For the same molecule, the TGI in test [1] was 35.1 µM and 58.5 µM; in test [2] it was 9.21 µM and 24.9 µM; in [3], 37.9 µM and 82.4 µM; in test [4], 17 µM and 26.1 µM; in [5] it was 67.5 µM and > 100 µM; in test [6] it was 67.5 µM and 98.1 µM. Further, the TGI in [7] is 67.5 µM and 11.4 µM; in test [8], 47.1 µM and 89.8 µM; in test [9], 67.5 µM and 80.1 µM; in [10], 56.5 µM and 67 µM.
